Values quoted from earlier work in paper PMC5695669 (Journal of medicinal chemistry, 2012).

Legend:
[1] = test system: guinea pig ileum longitudinal muscle-myenteric plexus; details: read-out: GPI (IC50); functional bioactivity, ±SEM; ref [3]
rMor (μ opioid receptor) = rMor (μ opioid receptor) (Rattus norvegicus, UniProt P33535); details: [3H]DAMGO, ±SEM, ref [3]
Chain of rMor (μ opioid receptor) (P33535 whole entry): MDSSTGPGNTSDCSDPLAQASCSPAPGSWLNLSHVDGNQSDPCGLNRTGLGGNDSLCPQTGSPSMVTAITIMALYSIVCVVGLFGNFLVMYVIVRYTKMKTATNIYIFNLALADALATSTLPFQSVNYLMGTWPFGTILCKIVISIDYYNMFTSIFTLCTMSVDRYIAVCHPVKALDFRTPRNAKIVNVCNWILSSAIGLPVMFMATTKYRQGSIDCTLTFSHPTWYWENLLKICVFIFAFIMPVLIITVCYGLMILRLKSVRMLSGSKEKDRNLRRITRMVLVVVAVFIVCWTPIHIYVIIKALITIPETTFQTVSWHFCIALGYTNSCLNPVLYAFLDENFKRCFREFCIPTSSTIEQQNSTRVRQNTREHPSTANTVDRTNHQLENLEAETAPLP

H-Tyr-Pro-Phe-Phe-NH2 (H-YPFF-NH2) [EM-2]
IC50 [1]: 15 ± 2 nM | Ki (rMor (μ opioid receptor)): 9.6 ± 0.98 nM
